In one series the target is T1, PPARγ-RXRα heterodimer (Homo sapiens, UniProt P37231).
T1 construct: expressed in transfected cells; host or cells: CHO-K1
T1 sequence (P37231 1-505): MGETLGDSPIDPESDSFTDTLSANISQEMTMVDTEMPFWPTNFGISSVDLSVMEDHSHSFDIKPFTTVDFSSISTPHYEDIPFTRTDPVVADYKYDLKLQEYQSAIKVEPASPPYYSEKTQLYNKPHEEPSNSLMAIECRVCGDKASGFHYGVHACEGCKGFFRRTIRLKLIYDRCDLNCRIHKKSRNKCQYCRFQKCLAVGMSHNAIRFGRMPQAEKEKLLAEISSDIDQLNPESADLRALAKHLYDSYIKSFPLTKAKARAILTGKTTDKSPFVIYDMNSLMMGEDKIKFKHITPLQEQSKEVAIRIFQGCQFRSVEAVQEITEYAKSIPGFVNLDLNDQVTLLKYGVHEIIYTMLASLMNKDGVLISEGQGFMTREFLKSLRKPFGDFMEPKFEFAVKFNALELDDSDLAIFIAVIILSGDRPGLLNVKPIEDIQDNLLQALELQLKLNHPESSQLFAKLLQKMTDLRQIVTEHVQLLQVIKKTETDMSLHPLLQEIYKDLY
T1 sequence (P19793 1-462 partner): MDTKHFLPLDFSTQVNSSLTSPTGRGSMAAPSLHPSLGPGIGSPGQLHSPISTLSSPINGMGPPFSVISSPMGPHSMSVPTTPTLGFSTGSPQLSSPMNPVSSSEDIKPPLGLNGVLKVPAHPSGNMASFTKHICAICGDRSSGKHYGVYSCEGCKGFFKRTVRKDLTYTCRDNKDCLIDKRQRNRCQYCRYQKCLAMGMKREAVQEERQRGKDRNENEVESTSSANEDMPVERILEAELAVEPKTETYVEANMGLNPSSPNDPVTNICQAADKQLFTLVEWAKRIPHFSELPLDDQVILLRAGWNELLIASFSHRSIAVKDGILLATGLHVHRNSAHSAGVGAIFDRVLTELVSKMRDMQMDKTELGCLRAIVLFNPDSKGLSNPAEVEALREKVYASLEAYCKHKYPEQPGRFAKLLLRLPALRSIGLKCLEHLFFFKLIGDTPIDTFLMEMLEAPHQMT
As to the kind of experiment: PPARγ-RXRα heterodimer ligand activity (luciferase reporter). The series is classed as cell-based. To be noted: PPARγ:RXRα:4ERPP/CHO-K1 cells, 18-24 hr, concentration showing 50% of the maximum induction rate. The essentials:
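CHO-K1 cells carrying PPARγ, RXRα and a 4ERPP luciferase reporter, exposed to compound 18–24 h at 37 °C in Ham F12 with 0.1% fatty acid-free BSA. Luciferase induction expressed relative to untreated cells (= 1). EC50 is concentration giving 50% of maximal induction.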
A general note: In a reporter assay the amount or activity of a reporter protein is the signal.

The target of another series is T2, PPARδ-RXRα heterodimer (Homo sapiens, UniProt Q03181).
T2 construct: expressed in transfected cells
T2 sequence (Q03181 1-441): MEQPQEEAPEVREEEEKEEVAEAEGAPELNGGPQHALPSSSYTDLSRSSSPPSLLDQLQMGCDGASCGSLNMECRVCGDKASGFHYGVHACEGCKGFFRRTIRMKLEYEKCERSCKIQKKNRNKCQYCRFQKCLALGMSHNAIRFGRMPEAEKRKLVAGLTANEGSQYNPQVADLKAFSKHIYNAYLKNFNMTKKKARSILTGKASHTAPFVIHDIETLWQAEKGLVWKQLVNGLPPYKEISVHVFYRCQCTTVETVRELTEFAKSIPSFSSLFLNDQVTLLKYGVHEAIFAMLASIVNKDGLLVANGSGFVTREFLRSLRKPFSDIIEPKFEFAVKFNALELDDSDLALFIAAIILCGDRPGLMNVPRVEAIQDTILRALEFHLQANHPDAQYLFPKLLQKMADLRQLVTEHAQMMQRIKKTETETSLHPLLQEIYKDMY
T2 sequence (P19793 1-462 partner): T1 sequence (P19793 1-462 partner)
As to the kind of experiment: PPARδ-RXRα heterodimer ligand activity (luciferase reporter). The series is classed as cell-based. To be noted: transformant of Reference Example 9a of WO03/099793, 36-48 hr, concentration showing 50% of the maximum induction rate. How it is done:
The transformant described in Reference Example 9a of WO03/099793 was suspended in a DMEM medium [manufactured by Life technologies, Inc., US] containing 0.1% fatty acid-free bovine serum albumin (BSA) (manufactured by Wako Pure Chemical Industries, Ltd.), and inoculated to each well of a 96 well white plate [manufactured by Corning Coster Corporation, US] by 80 μl to 1×10^4 cells/well. Then, the test compound (20 μl) was added, and cultured under the conditions of 37° C., 5% CO2 for 36-48 hr. The medium was removed from the 96 well white plate, 40 μl of PicaGene LT 7.5 (manufactured by Wako Pure Chemical Industries, Ltd.) diluted 2-fold with HBSS (HANKS' BALANCED SALT SOLUTION) [manufactured by BIO WHITTAKER, US] was added and, after stirring, the luciferase activity was determined using the 1420 ARVO Multilabel Counter [manufactured by PerkinElmer, US].
The induction rate was calculated from the luciferase activity of each test compound based on the luciferase activity of the test compound non-administration group as 1. The test compound concentration and the induction rate were analyzed by PRISM [manufactured by GraphPad Software, Inc., US] to calculate EC50 value (compound concentration showing 50% of the maximum value of induction rate) of the test compound.

EC50 and melting point data for 18 compounds are collected here from patent US20080051418A1, “Arylalkanoic Acid Derivative” (priority 2004, published 2008).

On to `COc1cccc(CC(=O)O)c1OCCCc1cc(OC(C)C)nn1Cc1ccc(C(F)(F)F)cc1Cl` [Example 66, [2-(3-{1-[2-chloro-4-(trifluoromethyl)benzyl]-3-isopropoxy-1H-pyrazol-5-yl}propoxy)-3-methoxyphenyl]acetic acid], for which the melting point (as a rule, the temperature of the solid-liquid transition) lay in the range of 98 to 99 °C. Also, at PPARγ-RXRα heterodimer, the midpoint of the response, the EC50, lay at 1.2 nM. Moreover, the EC50 (commonly the concentration that produces a half-maximal response) on PPARδ-RXRα heterodimer turned out to be 2.8 nM.
Consider `COc1cccc(CC(=O)O)c1OCCCc1cc(OC(C)C)nn1Cc1ccc(Cl)cc1C` [Example 68, (2-{3-[1-(4-chloro-2-methylbenzyl)-3-isopropoxy-1H-pyrazol-5-yl]propoxy}-3-methoxyphenyl)acetic acid], for which the melting point lay within 108 to 109 °C. Besides, the response on PPARγ-RXRα heterodimer was half-maximal at 6 nM (EC50). The compound also yielded an EC50 on PPARδ-RXRα heterodimer of 74 nM.
At PPARδ-RXRα heterodimer, `COc1cccc(CC(=O)O)c1OCCCc1cc(OC(C)C)nn1Cc1ccc(Cl)cc1OC(C)C` [Example 70, (2-{3-[1-(4-chloro-2-isopropoxybenzyl)-3-isopropoxy-1H-pyrazol-5-yl]propoxy}-3-methoxyphenyl)acetic acid] displayed an EC50 of 60 nM.
As for `COc1cccc(CC(=O)O)c1OCCCc1ccc(Oc2ccc(C(F)(F)F)cn2)cc1OC(C)C` [Example 101, {2-[3-(2-isopropoxy-4-{[5-(trifluoromethyl)pyridin-2-yl]oxy}phenyl)propoxy]-3-methoxyphenyl}acetic acid], a half-maximal response on PPARδ-RXRα heterodimer (EC50) required 44 nM.
Compound `CCCOc1cc(Oc2ccc(C(F)(F)F)cn2)ccc1CCCOc1c(CC(=O)O)cccc1OC` [Example 102, {2-[3-(2-propoxy-4-{[5-(trifluoromethyl)pyridin-2-yl]oxy}phenyl)propoxy]-3-methoxyphenyl}acetic acid] showed an EC50 at PPARδ-RXRα heterodimer of 54 nM.
With `COCOc1ccc(CCCOc2nn(Cc3ccccc3)cc2CC(=O)O)c(Oc2ncc(C(F)(F)F)cc2Cl)c1` [Example 112, (3-{3-[2-{[3-chloro-5-(trifluoromethyl)pyridin-2-yl]oxy}-4-(methoxymethoxy)phenyl]propoxy}-1-benzyl-1H-pyrazol-4-yl)acetic acid], the melting point lay in the range of 108 to 109 °C. This compound also yielded an EC50 on PPARγ-RXRα heterodimer of 0.57 nM. For the same compound, the EC50 at PPARδ-RXRα heterodimer was found to be 57 nM.
As for `CCCOc1ccc(CCCOc2nn(C)cc2CC(=O)O)c(Oc2ncc(C(F)(F)F)cc2Cl)c1` [Example 113, {3-[3-(2-{[3-chloro-5-(trifluoromethyl)pyridin-2-yl]oxy}-4-propoxyphenyl)propoxy]-1-methyl-1H-pyrazol-4-yl}acetic acid], at PPARδ-RXRα heterodimer, the midpoint of the response, the EC50, lay at 44 nM. In other words, the double-digit nanomolar range.
Regarding `CCCOc1ccc(CCCOc2nn(Cc3ccccc3)cc2CC(=O)O)c(Oc2ncc(C(F)(F)F)cc2Cl)c1` [Example 114, {3-[3-(2-{[3-chloro-5-(trifluoromethyl)pyridin-2-yl]oxy}-4-propoxyphenyl)propoxy]-1-benzyl-1H-pyrazol-4-yl}acetic acid], the midpoint of the response on PPARδ-RXRα heterodimer, the EC50, lay at 25 nM.
The compound `COc1cccc(CC(=O)O)c1OCCCc1ccc(OC(C)C)cc1Oc1ncc(C(F)(F)F)cc1Cl` [Example 115, {2-[3-(2-{[3-chloro-5-(trifluoromethyl)pyridin-2-yl]oxy}-4-isopropoxyphenyl)propoxy]-3-methoxyphenyl}acetic acid] registered an EC50 on PPARδ-RXRα heterodimer of 2.5 nM.
As for `CC(C)Oc1ccc(CCCOc2nn(C)cc2CC(=O)O)c(Oc2ncc(C(F)(F)F)cc2Cl)c1` [Example 116, {3-[3-(2-{[3-chloro-5-(trifluoromethyl)pyridin-2-yl]oxy}-4-isopropoxyphenyl)propoxy]-1-methyl-1H-pyrazol-4-yl}acetic acid], the EC50 on PPARγ-RXRα heterodimer came out at 1.6 nM; at PPARδ-RXRα heterodimer, 9.3 nM.
For the compound `CC(C)Oc1ccc(CCCOc2nn(Cc3ccccc3)cc2CC(=O)O)c(Oc2ncc(C(F)(F)F)cc2Cl)c1` [Example 118, {3-[3-(2-{[3-chloro-5-(trifluoromethyl)pyridin-2-yl]oxy}-4-isopropoxyphenyl)propoxy]-1-benzyl-1H-pyrazol-4-yl}acetic acid], the EC50 on PPARγ-RXRα heterodimer amounted to 0.75 nM; on PPARδ-RXRα heterodimer it was 9.2 nM.
As for `COc1cccc(CC(=O)O)c1OCCCc1ccc(OC(C)C)cc1Oc1ncc(Cl)cc1Cl` [Example 119, [2-(3-{2-[(3,5-dichloropyridin-2-yl)oxy]-4-isopropoxyphenyl}propoxy)-3-methoxyphenyl]acetic acid], the melting point lay within 92 to 93 °C. The compound also displayed an EC50 at PPARδ-RXRα heterodimer of 39 nM.
As to `CCn1cc(CC(=O)O)c(OCCCc2ccc(OC(C)C)cc2Oc2ncc(Cl)cc2Cl)n1` [Example 120, [3-(3-{2-[(3,5-dichloropyridin-2-yl)oxy]-4-isopropoxyphenyl}propoxy)-1-ethyl-1H-pyrazol-4-yl]acetic acid], the values for the EC50 on PPARγ-RXRα heterodimer and on PPARδ-RXRα heterodimer were 3.3 nM and 23 nM, respectively.
The compound `CC(C)Oc1ccc(CCCOc2ncccc2CC(=O)O)c(Oc2ncc(Cl)cc2Cl)c1` [Example 121, [2-(3-{2-[(3,5-dichloropyridin-2-yl)oxy]-4-isopropoxyphenyl}propoxy)pyridin-3-yl]acetic acid] had a melting point of 84 to 85 °C. Further, the EC50 on PPARγ-RXRα heterodimer amounted to 3.3 nM. The concentration giving a half-maximal response (EC50) at PPARδ-RXRα heterodimer was 7.6 nM.
As to `CC(C)Oc1ccc(CCCOc2nn(C)cc2CC(=O)O)c(Oc2ncc(Cl)cc2Cl)c1` [Example 132, [3-(3-{2-[(3,5-dichloropyridin-2-yl)oxy]-4-isopropoxyphenyl}propoxy)-1-methyl-1H-pyrazol-4-yl]acetic acid], the EC50 at PPARγ-RXRα heterodimer worked out at 11 nM; at PPARδ-RXRα heterodimer, 88 nM.
The matching figures for `CC(C)Oc1ccc(CCCOc2cc(CCC(=O)O)n(-c3ccccc3)n2)c(Oc2ncc(Cl)cc2Cl)c1` [Example 138, 3-[3-(3-{2-[(3,5-dichloropyridin-2-yl)oxy]-4-isopropoxyphenyl}propoxy)-1-phenyl-1H-pyrazol-5-yl]propanoic acid]: 1.2 nM and 4 nM.
On to `CC(C)Oc1ccc(CCCOc2cc(CCC(=O)O)n(C)n2)c(Oc2ncc(C(F)(F)F)cc2Cl)c1` [Example 139, 3-{3-[3-(2-{[3-chloro-5-(trifluoromethyl)pyridin-2-yl]oxy}-4-isopropoxyphenyl)propoxy]-1-methyl-1H-pyrazol-5-yl}propanoic acid], for which the melting point lay within 88 to 89 °C. This compound also came in with an EC50 on PPARγ-RXRα heterodimer of 9 nM. For the same compound, on PPARδ-RXRα heterodimer, the midpoint of the response, the EC50, lay at 17 nM.
For the compound `CC(C)Oc1ccc(CCCOc2cc(CCC(=O)O)n(C(C)C)n2)c(Oc2ncc(C(F)(F)F)cc2Cl)c1` [Example 142, 3-{3-[3-(2-{[3-chloro-5-(trifluoromethyl)pyridin-2-yl]oxy}-4-isopropoxyphenyl)propoxy]-1-isopropyl-1H-pyrazol-5-yl}propanoic acid], the melting point fell in the range of 127.5 to 128.5 °C. At PPARγ-RXRα heterodimer, this compound had an EC50 of 7 nM. Besides, on PPARδ-RXRα heterodimer, the EC50 stood at 14 nM.
